Values after ≈ are worked out from the molar mass of the structure shown.

For this data set the following is noted: buffer; pH 7.4; 200.0 µM.
By solubility (kinetic) is commonly meant the concentration staying in solution when a stock, usually in DMSO, is diluted into the medium. In the case of `CC(NC(=O)c1cc(Br)cs1)C1CCCO1` (configuration not stated), the solubility (kinetic) was over 45.6 µg/mL.

With `Cc1ccc2oc(=O)n(Cc3ccccc3)c2c1`, the kinetic solubility came out at 2.9 µg/mL (≈ 12.1 µM).

For `CCOc1ccc2nc(NC(=O)C3(C)CC3(Br)Br)sc2c1` (configuration not stated), the kinetic solubility came out at 8.4 µg/mL (≈ 19.3 µM).

The molecule `Cc1ccc(C(C)C)cc1OCC(=O)NCCCn1ccnc1` yielded a solubility (kinetic) of over 47.3 µg/mL.

`CC(C)C(C)N(Cc1cccc(C(=O)O)c1)C(=O)c1ccc2ccccc2n1` (configuration not stated) came in with a solubility (kinetic) of 31.7 µg/mL (≈ 84.2 µM).

`COc1ccccc1NC(=O)Nc1nc2ccc(S(N)(=O)=O)cc2s1`: the solubility (kinetic) came out at 1.6 µg/mL (≈ 4.23 µM).

On to `O=[N+]([O-])c1ccc(Cl)c2cccnc12`, for which the kinetic solubility is 24.6 µg/mL (≈ 118 µM).

Consider `COc1cc(/C=C/[N+](=O)[O-])ccc1OC(=O)c1cc2ccccc2oc1=O`, for which the kinetic solubility was 5.7 µg/mL (≈ 15.5 µM).

Molecule `CCOc1ccccc1Nc1ccc(C(=O)O)cc1[N+](=O)[O-]` came in with a solubility (kinetic) of 40.8 µg/mL (≈ 135 µM).

In turn, `COc1ccc(Nc2nc(OC)nc(N3CCOCC3)n2)cc1` had a kinetic solubility of 21.8 µg/mL (≈ 68.7 µM).

In turn, `Cc1cc(C)cc(OCC(=O)Nc2nc(-c3ccccn3)cs2)c1` showed a solubility (kinetic) of 1.2 µg/mL (≈ 3.54 µM).

`COCCNC(=S)N1CCC(C(=O)c2ccc(C)cc2)CC1` had a solubility (kinetic) of 43.2 µg/mL (≈ 135 µM).

On to `CCS(=O)c1ccccc1C(=O)OCC(=O)Nc1ccc2ccccc2c1` (configuration not stated), for which the solubility (kinetic) was determined as 45.8 µg/mL (≈ 120 µM).

On to `C=CCn1c(=O)c(C(=O)NCc2ccc3c(c2)OCO3)c(O)c2ccccc21`, for which the kinetic solubility came to 1.3 µg/mL (≈ 3.44 µM).

Molecule `CSc1cccc(NC(=S)Nc2cc(C)ccc2C)c1` showed a solubility (kinetic) of 22.5 µg/mL (≈ 74.4 µM).

`CSC1=C(C#N)C(c2ccncc2)C(C(=O)Nc2ccccc2)=C(C)N1` (configuration not stated) displayed a solubility (kinetic) of 52.5 µg/mL (≈ 145 µM).

Turning to `CCOc1ccc(/C=C(\C#N)C(=O)NC2CC2)c(OCC)c1`, the solubility (kinetic) stood at 4.8 µg/mL (≈ 16 µM).

`CC(OC(=O)CN1C(=O)c2ccccc2C1=O)C(=O)NC1CCCCC1` (configuration not stated) showed a solubility (kinetic) of over 53.8 µg/mL.

`Cc1ccc(-c2csc(NC(=O)c3c(C)noc3C)n2)s1` had a kinetic solubility of 15.8 µg/mL (≈ 49.5 µM).

As to `CCOC(=O)C1CCCN(C(=O)CSc2nc(C)cc(C)n2)C1` (configuration not stated), the solubility (kinetic) amounted to 41.5 µg/mL (≈ 123 µM).

`O=S(=O)(c1ccc(Cl)cc1)N1CCCCCC1` had a kinetic solubility of 11.4 µg/mL (≈ 41.6 µM).

Take `O=c1cc(-c2ccncc2)oc2c1ccc1ccccc12`: the kinetic solubility was determined as 0.7 µg/mL (≈ 2.56 µM).

The molecule `CCCCOc1ccc(C(=O)NN2CCOCC2)cc1` registered a kinetic solubility of over 41.8 µg/mL.

`O=C(CN1C(=O)COc2ccc(Cl)cc21)Nc1nccs1`: the solubility (kinetic) amounted to 1.4 µg/mL (≈ 4.32 µM).

Molecule `CC1CCCN(C(=O)c2ccc(-c3ccccc3Cl)o2)C1` (configuration not stated) displayed a solubility (kinetic) of 10 µg/mL (≈ 32.9 µM).

In turn, `CC1CCN(C2=NC(=O)/C(=C/c3ccc(O)cc3)S2)CC1` displayed a solubility (kinetic) of 3.8 µg/mL (≈ 12.6 µM).

Regarding `O=C(CCN1C(=O)COc2ccccc21)N1CCN(c2ccccc2)CC1`, the solubility (kinetic) came out at 47 µg/mL (≈ 129 µM).

In turn, `COc1cc2c(cc1OC)CN(C1CCC(C)CC1)CC2` (configuration not stated) yielded a kinetic solubility of 34.7 µg/mL (≈ 120 µM).

`O=C1C2CCCCN2C(=O)N1CCCCN1CCN(c2cccc(Cl)c2)CC1` (configuration not stated) registered a kinetic solubility of 54.2 µg/mL (≈ 134 µM).

The molecule `O=C(NNC(=O)c1ccncc1)Nc1cccc([N+](=O)[O-])c1` registered a solubility (kinetic) of over 45.2 µg/mL.

`CCOc1ccc(S(=O)(=O)NCc2cccnc2)cc1` returned a kinetic solubility of over 43.9 µg/mL.

`COc1ccc(-c2noc(CN(C)C3CCOCC3)n2)cc1` displayed a kinetic solubility of over 45.5 µg/mL.

`O=C(Nc1ccc(F)c(Cl)c1)c1cc(-c2ccco2)on1`: the kinetic solubility is under 0.3 µg/mL.

`COc1ccccc1NC(=O)Cc1ccsc1` had a solubility (kinetic) of over 37.1 µg/mL.

As to `N#Cc1ccccc1NC(=O)c1cc(=O)c2ccccc2o1`, the solubility (kinetic) is 1.9 µg/mL (≈ 6.55 µM).

On to `CCC(C)C(=O)Nc1ccccc1N1CCN(c2ccc(F)cc2)CC1` (configuration not stated), for which the solubility (kinetic) was 2.9 µg/mL (≈ 8.16 µM).

With `O=C(Cc1ccccc1)NCC1OCCc2ccccc21` (configuration not stated), the solubility (kinetic) was 30.9 µg/mL (≈ 110 µM).

Molecule `O=C(O)c1ccccc1OCc1nc2ccccc2s1` showed a solubility (kinetic) of under 0.6 µg/mL.

Molecule `Cc1ccc(S(=O)(=O)N2CCOCC2)cc1C(=O)NCCc1ccc(Cl)cc1` returned a solubility (kinetic) of 26 µg/mL (≈ 61.5 µM).

In turn, `CN(Cc1ccccc1)C(=O)c1ccc(S(=O)(=O)N(C)c2ccccc2)cc1` registered a solubility (kinetic) of 26.1 µg/mL (≈ 66.2 µM).

For `Cc1cccc(C(=O)NCC(=O)NC2CCC(C)CC2)c1` (configuration not stated), the kinetic solubility came out at 10.5 µg/mL (≈ 36.4 µM).

Turning to `CCOC(=O)C1=C(N)Oc2cc(O)ccc2C1c1cccc(Cl)c1` (configuration not stated), the solubility (kinetic) was under 0.7 µg/mL.

Take `O=S(=O)(c1ccc(F)c(F)c1)N1CCC2(CC1)OCCO2`: the solubility (kinetic) is over 47.9 µg/mL.

In turn, `C=CCC(=O)NC(C)c1cnn(-c2ccccc2C)c1C` (configuration not stated) had a solubility (kinetic) of over 42.5 µg/mL.

In the case of `CC1(C)OC(=O)C(=CNC(CO)C(=O)O)C(=O)O1` (configuration not stated), the solubility (kinetic) was over 38.9 µg/mL.

`N/C(=N\OC(=O)Cc1ccc(Cl)cc1)c1ccncc1`: the solubility (kinetic) is 27.1 µg/mL (≈ 93.5 µM).

Turning to `OCCN(CCO)c1ccc2ccccc2c1`, the solubility (kinetic) was over 34.7 µg/mL.

`CC1Oc2ccccc2N(CC(=O)NC2CCCCC2)C1=O` (configuration not stated) had a solubility (kinetic) of over 45.4 µg/mL.

Regarding `O=C(CSc1ccccn1)Nc1ccc2c(c1)OCO2`, the kinetic solubility is over 43.2 µg/mL.

Consider `COc1ccccc1C1CCN(C(=O)c2ccc(Cl)cc2)CC1`, for which the solubility (kinetic) was determined as 17 µg/mL (≈ 51.5 µM).

In turn, `CCOC(=O)COc1cc([N+](=O)[O-])cc2cccnc12` displayed a kinetic solubility of over 41.4 µg/mL.

The molecule `O=C(Nc1ccccc1Cl)C1CC(=O)N(c2ccccc2)C1` (configuration not stated) returned a solubility (kinetic) of 33.4 µg/mL (≈ 106 µM).

For the origin of these results see PubChem BioAssay AID1996.
